Like-named read-outs stand apart in the source and are kept apart here.
Columns and labels:
[1] = molecular target: T1, human GIP receptor (hGIPR) (Homo sapiens, UniProt P48546); assay: GIP receptor assay, method B (CRE-luciferase reporter, BHK cells, 384-well); assay type: cell-based
T1 construct: expressed in transfected cells
T1 sequence (P48546 22-466): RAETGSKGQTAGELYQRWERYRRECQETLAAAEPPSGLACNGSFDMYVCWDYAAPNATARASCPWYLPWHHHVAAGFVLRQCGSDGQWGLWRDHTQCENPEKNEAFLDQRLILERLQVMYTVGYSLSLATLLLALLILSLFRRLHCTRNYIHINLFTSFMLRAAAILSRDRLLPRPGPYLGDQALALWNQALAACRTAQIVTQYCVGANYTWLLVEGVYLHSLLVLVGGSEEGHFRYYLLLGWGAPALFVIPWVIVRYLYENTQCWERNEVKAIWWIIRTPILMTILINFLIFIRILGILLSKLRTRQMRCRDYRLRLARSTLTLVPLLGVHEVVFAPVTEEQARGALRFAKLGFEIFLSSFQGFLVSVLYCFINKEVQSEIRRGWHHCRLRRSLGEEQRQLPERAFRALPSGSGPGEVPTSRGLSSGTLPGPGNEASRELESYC

[2] = molecular target: T2, human amylin receptor (hAMYR3) (Homo sapiens, UniProt O60896+P30988); assay: Amylin receptor assay, method B (CRE-luciferase reporter, BHK cells); assay type: cell-based
T2 construct: host or cells: BHK cells (Hollex-1 line expressing hCTR(a) and CRE-Luc), further transfected with human RAMP3
T2 sequence (P30988 25-474): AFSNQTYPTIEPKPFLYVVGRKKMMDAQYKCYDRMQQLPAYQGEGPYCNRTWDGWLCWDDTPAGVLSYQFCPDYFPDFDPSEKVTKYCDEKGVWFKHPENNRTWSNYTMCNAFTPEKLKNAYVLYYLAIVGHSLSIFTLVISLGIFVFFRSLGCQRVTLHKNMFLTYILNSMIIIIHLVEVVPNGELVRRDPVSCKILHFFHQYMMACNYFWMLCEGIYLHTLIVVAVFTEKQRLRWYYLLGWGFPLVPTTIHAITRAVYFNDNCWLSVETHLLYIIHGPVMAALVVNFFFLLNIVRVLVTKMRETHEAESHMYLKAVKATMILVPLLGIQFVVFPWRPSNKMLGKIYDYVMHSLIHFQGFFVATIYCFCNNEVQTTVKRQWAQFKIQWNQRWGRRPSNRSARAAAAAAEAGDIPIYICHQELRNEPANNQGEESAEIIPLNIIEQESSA
T2 sequence (O60896 24-148): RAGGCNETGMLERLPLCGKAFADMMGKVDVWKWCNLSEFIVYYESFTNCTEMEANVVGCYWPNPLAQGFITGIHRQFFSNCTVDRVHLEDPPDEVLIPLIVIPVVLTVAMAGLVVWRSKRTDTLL
How it was run: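 BHK cells with CRE-luciferase, co-expressing hAMYR3 and transfected with human RAMP3, seeded overnight, then exposed 3 h at 37 °C to compound. Buffer: phenol red-free DMEM, 10 mM HEPES, 1% ovalbumin, with 0% or 1% (w/v) HSA. Luminescence read after 30 min with steadylite Plus.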

[3] = Chemical stability assessment in formulation (UPLC-UV-MS purity loss at 37° C.); assay type: physicochemical; details: 8 mM phosphate buffer pH 7.4, 1 mg/mL, 2 weeks
How it was run: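 Degradation tracked by UPLC-UV-MS (formic acid/acetonitrile gradient) on samples drawn over 2 weeks at 37° C. Solutions were made at a 1 mg/mL target in 8 mM phosphate, pH 7.4, kept in sealed vials and frozen after sampling.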

[4] = molecular target: T3, human GLP-1 receptor (hGLP-1R) (Homo sapiens, UniProt P43220); assay: GLP-1 receptor assay, method B (CRE-luciferase reporter, BHK cells, 384-well); assay type: cell-based; details: hGLP-1R Potency, 1% HSA, EC50, methods B, in the presence of 1% HSA
T3 construct: expressed in transfected cells
T3 sequence (P43220 24-463): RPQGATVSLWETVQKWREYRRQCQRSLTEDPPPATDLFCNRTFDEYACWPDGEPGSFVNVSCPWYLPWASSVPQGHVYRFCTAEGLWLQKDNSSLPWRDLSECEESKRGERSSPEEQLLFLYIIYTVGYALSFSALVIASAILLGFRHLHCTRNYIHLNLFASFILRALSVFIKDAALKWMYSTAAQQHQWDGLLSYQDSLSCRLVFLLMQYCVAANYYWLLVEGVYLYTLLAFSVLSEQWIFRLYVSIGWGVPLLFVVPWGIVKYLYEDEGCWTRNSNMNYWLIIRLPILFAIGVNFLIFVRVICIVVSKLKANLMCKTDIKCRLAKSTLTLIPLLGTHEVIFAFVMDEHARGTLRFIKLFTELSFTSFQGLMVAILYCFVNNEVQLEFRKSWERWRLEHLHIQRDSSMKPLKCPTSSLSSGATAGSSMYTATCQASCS

EC50 ([1]; hGIPR Potency, 1% HSA, EC50, methods B, in the presence of 1% HSA): 71.4 pM | EC50 ([1]; method B, absence of HSA, read-out: hGIPR Potency, no HSA, EC50): 2 pM | EC50 ([2]; hAMYR3 Potency, 1% HSA, EC50, methods B, in the presence of 1% HSA): 108 pM | EC50 ([2]; method B, absence of HSA, read-out: hAMYR3 Potency, no HSA, EC50): 6.2 pM | Purity loss per week at 37° C. [3]: 1.3% | EC50 [4]: 744 pM
Structure (SMILES): CC[C@H](C)[C@H](NC(=O)[C@H](CCC(=O)O)NC(=O)[C@H](CCC(=O)O)NC(=O)[C@H](CC(C)C)NC(=O)[C@H](CC(C)C)NC(=O)[C@H](CCCCNC(=O)COCCOCCNC(=O)COCCOCCNC(=O)CC[C@H](NC(=O)CCCCCCCCCCCCCCCCCCC(=O)O)C(=O)O)NC(=O)[C@H](CO)NC(=O)[C@H](Cc1ccc(O)cc1)NC(=O)[C@H](CC(=O)O)NC(=O)[C@H](CO)NC(=O)[C@@H](NC(=O)[C@H](Cc1ccccc1)NC(=O)[C@@H](NC(=O)CNC(=O)[C@H](CCC(=O)O)NC(=O)C(C)(C)NC(=O)[C@@H](N)Cc1ccc(O)cc1)[C@@H](C)O)[C@@H](C)O)C(=O)N[C@@H](C)C(=O)N[C@@H](C)C(=O)N[C@@H](CCCNC(=N)N)C(=O)N[C@@H](CCC(=O)O)C(=O)N[C@@H](Cc1ccccc1)C(=O)N[C@H](C(=O)N[C@@H](CCC(=O)O)C(=O)N[C@@H](Cc1c[nH]c2ccccc12)C(=O)N[C@@H](CC(C)C)C(=O)N[C@@H](CC(C)C)C(=O)N[C@@H](C)C(=O)NCC(=O)NCC(=O)N1CCC[C@H]1C(=O)N[C@@H](CO)C(=O)N[C@@H](CO)C(=O)NCC(=O)N[C@@H](C)C(=O)NCC(=O)N[C@@H](C)C(=O)N[C@@H](CO)C(=O)N[C@@H](CCC(=O)O)C(=O)N[C@@H](CC(C)C)C(=O)N[C@@H](CO)C(=O)N[C@H](C(=O)N[C@@H](C)C(=O)N[C@@H](CCC(N)=O)C(=O)N[C@@H](CC(C)C)C(=O)NCC(=O)N[C@@H](CCCNC(=N)N)C(=O)N[C@@H](CC(C)C)C(=O)N[C@@H](CO)C(=O)N[C@@H](C)C(=O)N[C@@H](CCC(=O)O)C(=O)N[C@@H](CC(C)C)C(=O)N[C@@H](Cc1c[nH]cn1)C(=O)N[C@@H](CCC(N)=O)C(=O)N[C@@H](CC(C)C)C(=O)N[C@@H](C)C(=O)N[C@H](C(=O)N[C@@H](CC(C)C)C(=O)N1CCC[C@H]1C(=O)N[C@@H](CCCNC(=N)N)C(=O)N[C@H](C(=O)N[C@@H](CCC(=O)O)C(=O)N[C@H](C(=O)NCC(=O)N[C@@H](CO)C(=O)NCC(=O)N[C@@H](CO)C(=O)N1CCC[C@H]1C(N)=O)[C@@H](C)O)[C@@H](C)O)[C@@H](C)O)[C@@H](C)O)[C@@H](C)CC [Compound 183]
